Patent publication US9540649B2, “Method for opening tight junctions” (The Provost, Fellows and Scholars of the College of the …, priority 2007, dated 2017)
“Also recorded” adds a separate entry of the source.

Tests used:
claudin-5 [1] = assay: Western blot analysis of claudin-5 expression in brain after hydrodynamic tail vein delivery of siRNA; type: in vivo, C57/Bl6 mice
Procedure: (§1) Rapid high pressure, high volume tail vein injections were carried out (Kiang et al., 2005). Wild type C57/Bl6 mice of weight 20-30 g were individually restrained inside a 60-ml volume plastic tube. The protruding tail was warmed for 5 minutes prior to injection under a 60-W lamp and the tail vein clearly visualized by illumination from below. 20 micrograms of targeting siRNA, or non-targeting siRNA made up with PBS to a volume in mls of 10% of the body weight in grams or PBS alone, was injected into the tail vein at a rate of 1 ml/sec using a 26-gauge (26 G 3/8) needle. After 24, 48, 72 hours and 1 week, protein was isolated from total brain tissue by crushing brains to a fine powder in liquid N2 and subsequently using lysis buffer containing 62.5 mM Tris, 2% SDS, 10 mM Dithiothreitol, 10 μl protease inhibitor cocktail/100 ml (Sigma Aldrich, Ireland). The homogenate was centrifuged at 10,000 g for 20 mins @4° C., and the supernatant was removed for claudin-5 analysis.
Briefly, protein samples were separated on 12% SDS-PAGE gels and transferred to nitrocellulose membrane overnight using a wet electroblot apparatus. Efficiency of protein transfer was determined using Ponceau-S solution (Sigma Aldrich, Ireland). Non-specific binding sites were blocked by incubating the membrane at room temperature with 5% non-fat dry skimmed milk in Tris-buffered saline (TBS) (0.05 M Tris, 150 mM NaCl, pH 7.5) for 2 hours. Membranes were briefly washed with TBS, and incubated with polyclonal rabbit anti-claudin-5 (Zymed Laboratories, San Francisco, Calif.) (1:500) or polyclonal rabbit anti-β-actin (Abcam, Cambridge, UK) (1:1000). Antibodies were incubated with membranes overnight at 4° C. Membranes were washed with TBS, and incubated with a secondary anti-rabbit (IgG) antibody with Horse-Radish-Peroxidase (HRP) conjugates (1:2500), for 3 hours at room temperature. Immune complexes were detected using enhanced chemiluminescence (ECL).

claudin-5 mRNA = assay: Real-time RT-PCR analysis of claudin-5 mRNA in brain post-injection of siRNA; type: in vivo, C57/Bl6 mice
Procedure: as §1
At the same time points post-delivery of siRNA total RNA was isolated from brains using Trizol (Invitrogen). RNA was then treated with RNase-free DNase (Promega, Madison, Wis., USA) and then chloroform extracted, isopropanol precipitated, washed with 75% RNA grade ethanol and resuspended in 100 μl RNase-free water.
RNA was analyzed by real-time RT-PCR using a Quantitect Sybr Green Kit as outlined by the manufacturer (Qiagen-Xeragon) on a LightCycler (Roche Diagnostics, Lewes, UK) under the following conditions: 50° C. for 20 min; 95° C. for 15 min; 38 cycles of 94° C. for 15 s, 57° C. for 20 s, 72° C. for 10 s.
cDNA fragments were amplified from claudin-5 and β-actin for each RNA sample a minimum of four times. Results were expressed as a percentage of those from the similarly standardized appropriate control experiment. The reciprocal values compared to the non-targeting control siRNA gave percentage suppression of claudin-5 expression. Mean values, standard deviations, and pooled t tests were calculated using GraphPad Prism©. Differences were deemed statistically significant at P<0.05.

claudin-1 = assay: Claudin-1 expression following suppression of claudin-5 (Western blot, double immunostaining); type: in vivo, C57/Bl6 mice
claudin-5 [2] = assay: Claudin-5 expression in retina after siRNA injection (Western blot, retinal flatmounts); type: in vivo, mice
[3] = MRI water diffusion in the brains of mice after claudin-5 siRNA; type: in vivo; conditions: 24 and 48 hours post injection
Procedure: 24 and 48 hours post-delivery of siRNA targeting claudin-5 or a non-targeting siRNA mice were anaesthetised with isofluorane, and physiologically monitored (ECG, respiration and temperature) and placed on an MRI-compatible support cradle, which has a built-in system for maintaining the animal's body temperature at 37° C. The cradle was then positioned within the MRI scanner. Accurate positioning is ensured by acquiring an initial rapid pilot image, which is then used to ensure the correct geometry is scanned in all subsequent MRI experiments. Upon insertion into the MRI scanner, high resolution anatomical images of the brain were acquired (100 μm in-plane and 500 μm through-plane spatial resolution). Water diffusion scans were subsequently undertaken. Using a standard diffusion imaging sequence such as a spin-echo EPI imaging sequence with diffusion gradients (Stejskal-Taner gradients) in order to acquire images over a large range of b-values. In this way, the effect of the technique in the vascular compartment and in the brain parenchymal tissue can be compared. All experiments were carried out on a 7 T Brüker small-bore system with 400 mT/m maximum gradient strength. Image processing and calculation of ADCs was carried out using IDL.

For “claudin-5 siRNA: siRNA, sense CGUUGGAAAUUCUGGGUCUUU (SEQ ID NO: 1), antisense AGACCCAGAAUUUCCAACGUU (SEQ ID NO: 2) (listed as RNA, chemistry not given here)”, the “claudin-5 expression, Western blot, brain” value (“claudin-5 expression … brain” for short) (claudin-5 [1]; 24 hours post delivery of 20 μg siRNA, vs un-injected, PBS and non-targeting siRNA controls) was “decrease in expression; also recorded: markedly decreased”, the “claudin-5 expression … brain” value (claudin-5 [1]; 48 hours post delivery of 20 μg siRNA, vs controls) was “suppression was also evident” and the “claudin-5 expression … brain” value (claudin-5 [1]; 48 hours post delivery of 20 μg siRNA, vs controls, listed as CLDN5 siRNA) was “significant decreases in Claudin-5 expression”. The “claudin-5 expression … brain” value (claudin-5 [1]; 48 hours post delivery of 20 μg siRNA, vs controls, listed as siRNA targeting claudin-5) was “maximum suppression”, the “claudin-5 expression … brain” value (claudin-5 [1]; 72 hours post delivery of 20 μg siRNA, vs controls, listed as CLDN5 siRNA) was “levels of expression appeared similar to those observed in the control groups” and the “time at which claudin-5 expression returns to normal, Western data” value (claudin-5 [1]; after injection) was “returning to normal between 72 hours and 1 week”. For the same substance, the “claudin-5 mRNA level, RT-PCR, brain” value (claudin-5 mRNA; 1 week post-injection, vs non-targeting control) was “not significantly changed”, the “claudin-5 mRNA levels suppressed with respect to the non-targeting control siRNA” value (claudin-5 mRNA; 24 hours post-injection) was “up to 95%” and the “claudin-5 mRNA level, RT-PCR, brain” value (claudin-5 mRNA; 24 hours post-injection, vs control groups) was “significantly decreased”. For the same substance, the “claudin-5 mRNA level, RT-PCR, brain” value (claudin-5 mRNA; 24 hours post-injection, vs control groups, listed as siRNA targeting claudin-5) was “significant decrease”, the “claudin-5 mRNA level, RT-PCR, brain” value (claudin-5 mRNA; 48 hours post-injection, vs control groups) was “showing suppression” and the “claudin-5 mRNA level, RT-PCR, brain” value (claudin-5 mRNA; 72 hours post-injection, vs non-targeting control) was “not significantly changed”. The “claudin-1 (23 kDa) expression, Western blot” value (claudin-1; 24, 48, 72 hours and 1 week post delivery of claudin-5 siRNA) was “no changes at any time points”, the “claudin-1 expression, double immunostaining in brain cryosections” value (claudin-1; each time point post-injection of claudin-5 siRNA) was “remain similar to those observed in the control groups” and the “claudin-5 expression in retinal flatmounts, immunohistochemistry” value (claudin-5 [2]; 24, 48 and 72 hours post injection, vs non-targeting siRNA) was “decreased localisation of claudin-5 at the periphery of endothelial cells”. For the same substance, the “claudin-5 expression in retinal protein lysates, Western blot” value (claudin-5 [2]; 48 hours post injection) was “decreased expression”, the “rate of water diffusion in the brain, MRI” value [3] was “no changes in diffusion” and the “rate of water diffusion in the brain, MRI” value ([3]; listed as siRNA targeting claudin-5) was “no change in the rate of water diffusion”.
